According to patent publication US10597383B2, “Bicyclic proline compounds” (Genentech, Inc., priority 2016, dated 2020):

Biological target: human TRPA1 (Homo sapiens (Human), UniProt O75762)
Assay: hTRPA1 CHO Ca2+ AUC EVO (IC50); FLIPR Tetra block of cinnamaldehyde induced calcium influx
Type: cell-based
Details: Table 1; CHO cells expressing TRPA1; 75 uM cinnamaldehyde (~EC80) as agonist
Protocol: IC50 ([…]) of compounds on the human and rat TRPA1 channels were determined using a FLIPR Tetra instrument. CHO cells expressing TRPA1 were plated into 384-well plates, incubated overnight at 37° C., and loaded with BD calcium indicator dye for 1 hr at 37° C. followed by 15 minutes. at room temperature. The assay buffer was Hank's Balanced Salt Solution (HBSS) containing 20 mM HEPES (pH readjusted to 7.4) along with 0.02% BSA.
Following dye load and plate cool down, compounds were added to the cells using FLIPR Tetra. Plates were then incubated with compounds for 20 minutes at room temperature prior to adding agonist. Following this incubation, ˜EC80 concentration of cinnamaldehyde (75 uM for human TRPA1 and 45 uM for rat TRPA1) was added to active the channels and block of cinnamaldehyde induced calcium influx was measured.
IC50 values were fit with a standard Hill function, keeping the Hill coefficient (n) fixed to 1.5. Fixing the Hill coefficient will generally reduce variability of the IC50 determination. The IC50 values were individually examined to make sure the MIN and MAX points were set correctly prior to validation of the results.

human TRPA1, sequence (O75762 whole entry): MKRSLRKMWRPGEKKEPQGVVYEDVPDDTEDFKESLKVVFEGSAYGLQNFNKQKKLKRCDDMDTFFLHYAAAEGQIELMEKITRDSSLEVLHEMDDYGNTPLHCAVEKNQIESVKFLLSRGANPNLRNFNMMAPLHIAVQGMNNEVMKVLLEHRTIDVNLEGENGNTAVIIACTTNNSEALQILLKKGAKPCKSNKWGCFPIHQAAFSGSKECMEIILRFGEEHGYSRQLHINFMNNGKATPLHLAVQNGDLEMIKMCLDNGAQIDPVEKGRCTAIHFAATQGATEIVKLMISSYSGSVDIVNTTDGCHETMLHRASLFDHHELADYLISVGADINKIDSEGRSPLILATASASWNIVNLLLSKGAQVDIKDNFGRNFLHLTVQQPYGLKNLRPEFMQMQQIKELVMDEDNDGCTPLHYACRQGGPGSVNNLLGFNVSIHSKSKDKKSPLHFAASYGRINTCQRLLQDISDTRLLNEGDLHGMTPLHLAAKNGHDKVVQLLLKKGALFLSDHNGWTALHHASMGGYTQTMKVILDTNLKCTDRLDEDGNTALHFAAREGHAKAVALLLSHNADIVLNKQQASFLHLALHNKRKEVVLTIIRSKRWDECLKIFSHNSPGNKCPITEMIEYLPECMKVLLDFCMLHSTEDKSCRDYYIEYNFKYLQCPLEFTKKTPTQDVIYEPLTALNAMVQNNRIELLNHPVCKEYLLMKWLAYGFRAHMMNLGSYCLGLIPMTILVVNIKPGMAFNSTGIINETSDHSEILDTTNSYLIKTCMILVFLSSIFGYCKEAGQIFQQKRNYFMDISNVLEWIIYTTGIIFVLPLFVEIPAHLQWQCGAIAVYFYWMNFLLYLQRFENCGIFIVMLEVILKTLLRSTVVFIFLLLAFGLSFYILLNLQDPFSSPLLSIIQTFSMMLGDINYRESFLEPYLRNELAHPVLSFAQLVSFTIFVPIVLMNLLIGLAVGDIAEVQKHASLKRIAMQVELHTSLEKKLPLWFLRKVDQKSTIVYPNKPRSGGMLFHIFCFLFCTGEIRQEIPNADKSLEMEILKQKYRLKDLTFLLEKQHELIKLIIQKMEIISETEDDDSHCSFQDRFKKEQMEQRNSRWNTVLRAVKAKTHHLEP

IC50 [nM]	SMILES
1.85	O=C(NCc1cc(-c2cnc(C(F)(F)F)nc2)ncc1C(F)(F)F)[C@@H]1C2CC(C2)N1S(=O)(=O)c1cc2cc(F)ccc2o1 [(2S)-3-(5-fluorobenzofuran-2-yl)sulfonyl-N-[[5-(trifluoromethyl)-2-[2-(trifluoromethyl)pyrimidin-5-yl]-4-pyridyl]methyl]-3-azabicyclo[2.1.1]hexane-2-carboxamide]
9.92	O=C(NCc1cc(-c2cnc(C(F)(F)F)nc2)ncc1C(F)F)[C@@H]1C2CC(C2)N1S(=O)(=O)c1ccc(F)cc1 [(2S)-N-[[5-(difluoromethyl)-2-[2-(trifluoromethyl)pyrimidin-5-yl]-4-pyridyl]methyl]-3-(4-fluorophenyl)sulfonyl-3-azabicyclo[2.1.1]hexane-2-carboxamide]
2.15	O=C(NCc1cc(-c2cnc(C(F)(F)F)nc2)nc(C2CC2)n1)[C@@H]1C2CC(C2)N1S(=O)(=O)c1ccc(F)cc1 [(2S)-N-[[2-cyclopropyl-6-[2-(trifluoromethyl)pyrimidin-5-yl]pyrimidin-4-yl]methyl]-3-(4-fluorophenyl)sulfonyl-3-azabicyclo[2.1.1]hexane-2-carboxamide]
9.01	O=C(NCc1cc(-c2cnc(C(F)(F)F)nc2)ncc1C(F)F)[C@@H]1C2CC(C2)N1S(=O)(=O)c1ccc(F)c(F)c1 [(2S)-N-[[5-(difluoromethyl)-2-[2-(trifluoromethyl)pyrimidin-5-yl]-4-pyridyl]methyl]-3-(3,4-difluorophenyl)sulfonyl-3-azabicyclo[2.1.1]hexane-2-carboxamide]
1.08	O=C(NCc1cc(-c2cnc(C(F)(F)F)nc2)c(F)cn1)[C@@H]1C2CC(C2)N1S(=O)(=O)c1cc2cc(F)ccc2o1
8.97	O=C(NCc1cc(F)cc(-c2cnc(C(F)(F)F)nc2)c1)[C@@H]1C2CC(C2)N1S(=O)(=O)c1ccc(F)cc1 [(2S)-3-(4-fluorophenyl)sulfonyl-N-[[3-fluoro-5-[2-(trifluoromethyl)pyrimidin-5-yl]phenyl]methyl]-3-azabicyclo[2.1.1]hexane-2-carboxamide]
9.89	O=C(NCc1cc(-c2cnc(C(F)(F)F)nc2)ccc1F)[C@@H]1C2CC(C2)N1S(=O)(=O)c1ccc(F)cc1 [(2S)-3-(4-fluorophenyl)sulfonyl-N-[[2-fluoro-5-[2-(trifluoromethyl)pyrimidin-5-yl]phenyl]methyl]-3-azabicyclo[2.1.1]hexane-2-carboxamide]
1.55	O=C(NCc1cc(-c2cnc(C(F)(F)F)nc2)ncc1Cl)[C@@H]1C2CC(C2)N1S(=O)(=O)c1ccc(F)c(F)c1 [(2S)-N-[[5-chloro-2-[2-(trifluoromethyl)pyrimidin-5-yl]-4-pyridyl]methyl]-3-(3,4-difluorophenyl)sulfonyl-3-azabicyclo[2.1.1]hexane-2-carboxamide]

Same assay, conditions: Table 3; CHO cells expressing TRPA1; 75 uM cinnamaldehyde (~EC80) as agonist

IC50 [nM]	SMILES
27.6	Cn1nc(C(F)(F)F)cc1-c1cc(F)cc(CNC(=O)[C@@H]2C3CC(C3)N2S(=O)(=O)c2ccc(F)cc2)c1 [compound 21, (2S)-N-[[3-fluoro-5-[2-methyl-5-(trifluoromethyl)pyrazol-3-yl]phenyl]methyl]-3-(4-fluorophenyl)sulfonyl-3-azabicyclo[2.1.1]hexane-2-carboxamide]
3.82	O=C(NCc1cc(-c2cnc(C(F)(F)F)nc2)ncc1Br)[C@@H]1C2CC(C2)N1S(=O)(=O)c1ccc(F)cc1 [compound 14, (2S)-N-[[5-bromo-2-[2-(trifluoromethyl)pyrimidin-5-yl]-4-pyridyl]methyl]-3-(4-fluorophenyl)sulfonyl-3-azabicyclo[2.1.1]hexane-2-carboxamide]
1.18	O=C(NCc1cc(-c2cnc(C(F)(F)F)nc2)nc(C(F)(F)F)n1)[C@@H]1C2CC(C2)N1S(=O)(=O)c1ccc(F)cc1 [compound 30, (2S)-3-(4-fluorophenyl)sulfonyl-N-[[2-(trifluoromethyl)-6-[2-(trifluoromethyl)pyrimidin-5-yl]pyrimidin-4-yl]methyl]-3-azabicyclo[2.1.1]hexane-2-carboxamide]
11.3	O=C(NCc1cc(-c2cnc(C(F)(F)F)nc2)ncc1F)[C@@H]1C2CC(C2)N1S(=O)(=O)c1ccc(F)cc1 [compound 2, (2S)-3-(4-fluorophenyl)sulfonyl-N-[[5-fluoro-2-[2-(trifluoromethyl)pyrimidin-5-yl]-4-pyridyl]methyl]-3-azabicyclo[2.1.1]hexane-2-carboxamide]
1.85	O=C(NCc1cc(-c2cnc(C(F)(F)F)nc2)ncc1C(F)(F)F)[C@@H]1C2CC(C2)N1S(=O)(=O)c1cc2cc(F)ccc2o1 [compound 31, (2S)-3-(5-fluorobenzofuran-2-yl)sulfonyl-N-[[5-(trifluoromethyl)-2-[2-(trifluoromethyl)pyrimidin-5-yl]-4-pyridyl]methyl]-3-azabicyclo[2.1.1]hexane-2-carboxamide]
19.1	COc1nn(-c2cnc(C(F)(F)F)nc2)cc1CNC(=O)[C@@H]1C2CC(C2)N1S(=O)(=O)c1ccc(F)cc1 [compound 34, (2S)-3-(4-fluorophenyl)sulfonyl-N-[[3-methoxy-1-[2-(trifluoromethyl)pyrimidin-5-yl]pyrazol-4-yl]methyl]-3-azabicyclo[2.1.1]hexane-2-carboxamide]
2.77	O=C(NCc1cc(-c2cnc(C(F)(F)F)nc2)ncc1OC(F)(F)F)[C@@H]1C2CC(C2)N1S(=O)(=O)c1ccc(F)cc1 [compound 15, (2S)-3-(4-fluorophenyl)sulfonyl-N-[[5-(trifluoromethoxy)-2-[2-(trifluoromethyl)pyrimidin-5-yl]-4-pyridyl]methyl]-3-azabicyclo[2.1.1]hexane-2-carboxamide]
42.9	O=C(NCc1cc(-c2cnc(C(F)(F)F)nc2)ncn1)[C@@H]1C2CC(C2)N1S(=O)(=O)c1ccc(F)cc1 [compound 1, (2S)-3-(4-fluorophenyl)sulfonyl-N-[[6-[2-(trifluoromethyl)pyrimidin-5-yl]pyrimidin-4-yl]methyl]-3-azabicyclo[2.1.1]hexane-2-carboxamide]
3.55	O=C(NCc1cc(-c2cnc(C(F)(F)F)nc2)nc(C2CC2)c1)[C@@H]1C2CC(C2)N1S(=O)(=O)c1ccc(F)cc1 [compound 33, (2S)-N-[[2-cyclopropyl-6-[2-(trifluoromethyl)pyrimidin-5-yl]-4-pyridyl]methyl]-3-(4-fluorophenyl)sulfonyl-3-azabicyclo[2.1.1]hexane-2-carboxamide]
17.1	N#Cc1ccc(-c2cnc(C(F)(F)F)nc2)cc1CNC(=O)[C@@H]1C2CC(C2)N1S(=O)(=O)c1ccc(F)cc1 [compound 9, (2S)-N-[[2-cyano-5-[2-(trifluoromethyl)pyrimidin-5-yl]phenyl]methyl]-3-(4-fluorophenyl)sulfonyl-3-azabicyclo[2.1.1]hexane-2-carboxamide]
1.55	O=C(NCc1cc(-c2cnc(C(F)(F)F)nc2)ncc1Cl)[C@@H]1C2CC(C2)N1S(=O)(=O)c1ccc(F)c(F)c1 [compound 13, (2S)-N-[[5-chloro-2-[2-(trifluoromethyl)pyrimidin-5-yl]-4-pyridyl]methyl]-3-(3,4-difluorophenyl)sulfonyl-3-azabicyclo[2.1.1]hexane-2-carboxamide]
16.8	O=C(NCc1cc(-c2cnc(C(F)(F)F)nc2)c(F)cn1)[C@@H]1C2CC(C2)N1S(=O)(=O)c1ccc(F)cc1 [compound 6, (2S)-3-(4-fluorophenyl)sulfonyl-N-[[5-fluoro-4-[2-(trifluoromethyl)pyrimidin-5-yl]-2-pyridyl]methyl]-3-azabicyclo[2.1.1]hexane-2-carboxamide]
4.84	O=C(NCc1cn(-c2cnc(C(F)(F)F)nc2)nc1C(F)(F)F)[C@@H]1C2CC(C2)N1S(=O)(=O)c1ccc(F)cc1 [compound 29, (2S)-3-(4-fluorophenyl)sulfonyl-N-[[3-(trifluoromethyl)-1-[2-(trifluoromethyl)pyrimidin-5-yl]pyrazol-4-yl]methyl]-3-azabicyclo[2.1.1]hexane-2-carboxamide]
7.24	O=C(NCc1cc(-c2cnc(C(F)(F)F)nc2)cc(C2CC2)n1)[C@@H]1C2CC(C2)N1S(=O)(=O)c1ccc(F)cc1 [compound 32, (2S)-N-[[6-cyclopropyl-4-[2-(trifluoromethyl)pyrimidin-5-yl]-2-pyridyl]methyl]-3-(4-fluorophenyl)sulfonyl-3-azabicyclo[2.1.1]hexane-2-carboxamide]
20.8	O=C(NCc1cc(-c2cnc(C(F)(F)F)nc2)c(Cl)cn1)[C@@H]1C2CC(C2)N1S(=O)(=O)c1ccc(F)cc1 [compound 7, (2S)-N-[[5-chloro-4-[2-(trifluoromethyl)pyrimidin-5-yl]-2-pyridyl]methyl]-3-(4-fluorophenyl)sulfonyl-3-azabicyclo[2.1.1]hexane-2-carboxamide]
6.06	O=C(NCc1cc(-c2ccc(C(F)(F)F)nc2)ccc1F)[C@@H]1C2CC(C2)N1S(=O)(=O)c1ccc(F)cc1 [compound 17, (2S)-3-(4-fluorophenyl)sulfonyl-N-[[2-fluoro-5-[6-(trifluoromethyl)-3-pyridyl]phenyl]methyl]-3-azabicyclo[2.1.1]hexane-2-carboxamide]
9.89	O=C(NCc1cc(-c2cnc(C(F)(F)F)nc2)ccc1F)[C@@H]1C2CC(C2)N1S(=O)(=O)c1ccc(F)cc1 [compound 16, (2S)-3-(4-fluorophenyl)sulfonyl-N-[[2-fluoro-5-[2-(trifluoromethyl)pyrimidin-5-yl]phenyl]methyl]-3-azabicyclo[2.1.1]hexane-2-carboxamide]
